Source: patent publication US10167262B2, “Herbicidal substituted 3-arylpyrazoles” (FMC CORPORATION, priority 2014, dated 2019)
Read-outs that look alike come from different tables or passages of the source.

Columns and labels:
Type in all cases: in vivo
[1] = tested on: barnyardgrass (Echinochloa crus-galli); assay: Test A pre-/postemergence greenhouse herbicide test, visual injury rating 0-100; conditions: for pest or weed control at 500 g/ha: 500 g ai/ha
Summary of the method: (§1)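 Each species was treated both before emergence, via soil spray onto a loam–sand blend, and after emergence at the one- to two-leaf stage. Plants stayed in the greenhouse around 10 days before visual injury assessment.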

[2] = tested on: corn (Zea mays); assay: as above; conditions: for plant injury at 500 g/ha: 500 g ai/ha
Summary of the method: as §1

[3] = tested on: giant foxtail (Setaria faberii); assay: as above; conditions: for pest or weed control at 500 g/ha: 500 g ai/ha
Summary of the method: as §1

[4] = tested on: large (Lg) crabgrass (Digitaria sanguinalis); assay: as above; conditions: for pest or weed control at 500 g/ha: 500 g ai/ha
Summary of the method: as §1

[5] = tested on: morningglory (Ipomoea spp.); assay: as above; conditions: for pest or weed control at 500 g/ha: 500 g ai/ha
Summary of the method: as §1

[6] = tested on: pigweed (Amaranthus retroflexus); assay: as above; conditions: for pest or weed control at 500 g/ha: 500 g ai/ha
Summary of the method: as §1

[7] = tested on: velvetleaf (Abutilon theophrasti); assay: as above; conditions: Abutilon theophrasti, 240 h, read-out: Plant response rating (0 to 100 scale), Velvetleaf; for pest or weed control at 500 g/ha: 500 g ai/ha
Summary of the method: as §1

[8] = tested on: wheat (Triticum aestivum); assay: as above; conditions: for plant injury at 500 g/ha: 500 g ai/ha
Summary of the method: as §1

[9] = tested on: galium (catchweed bedstraw, Galium aparine); assay: Test C pre-/postemergence greenhouse test, plant response rating 0-100; conditions: Galium; for pest or weed control at 62 g/ha: 62 g ai/ha; for pest or weed control at 125 g/ha: 125 g ai/ha; for pest or weed control at 250 g/ha: 250 g ai/ha; for pest or weed control at 500 g/ha: 500 g ai/ha
Summary of the method: (§2)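 Plants were treated either at seeding (soil of loam and sand) or as 2–18 cm seedlings in a sphagnum peat mix, using test chemicals in a surfactant-containing non-phytotoxic solvent. Visual assessment relative to controls followed 13–15 days later.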

[10] = tested on: morningglory (Ipomoea coccinea); assay: as above; conditions: Ipomoea; for pest or weed control at 62 g/ha: 62 g ai/ha; for pest or weed control at 125 g/ha: 125 g ai/ha; for pest or weed control at 250 g/ha: 250 g ai/ha; for pest or weed control at 500 g/ha: 500 g ai/ha
Summary of the method: as §2

[11] = tested on: oilseed rape (Brassica napus); assay: as above
Summary of the method: as §2

[12] = tested on: chickweed (common chickweed, Stellaria media); assay: Test C postemergence greenhouse test, plant response rating 0-100; conditions: Stellaria media, post-emergence
Summary of the method: (§3)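 Visual rating vs. controls, 0 (no effect) to 100 (complete control), 13–15 d after postemergence treatment. Potted plants, 1- to 4-leaf stage (2–18 cm), greenhouse-held.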

[13] = tested on: kochia (Kochia scoparia); assay: as above; conditions: Bassia scoparia, post-emergence
Summary of the method: as §3

[14] = tested on: wild oat (Avena fatua); assay: as above; conditions: Avena fatua, post-emergence
Summary of the method: as §3

[15] = post-emergence, Postemergence, read-out: Plant response rating (0 to 100), Galium
[16] = post-emergence, Postemergence, scale 0 to 100
[17] = pre-emergence, Preemergence, read-out: Plant response rating, Galium
[18] = post-emergence, Postemergence, read-out: Plant response rating (0 to 100), Morningglory
[19] = pre-emergence, Preemergence, read-out: Plant response rating, Morningglory

COC(OC)(c1ccccc1)c1c[nH]nc1-c1cc(Cl)cc(Cl)c1 [Compound 13, 3-(3,5-dichlorophenyl)-4-(dimethoxyphenylmethyl)-1H-pyrazole]
98: Plant response rating, Oilseed Rape ([11]; Preemergence, 500 g ai/ha)
85%: pest or weed control at 125 g/ha ([12]; 125 g ai/ha) | pest or weed control at 62 g/ha ([13]; 62 g ai/ha) | pest or weed control at 250 g/ha ([13]; 250 g ai/ha, scale 0 to 100)
80%: pest or weed control at 125 g/ha ([7]; post-emergence, Postemergence, 125 g ai/ha) | pest or weed control at 125 g/ha ([13]; 125 g ai/ha)
5%: pest or weed control at 500 g/ha ([14]; 500 g ai/ha, scale 0 to 100)
30%: pest or weed control at 250 g/ha ([9]; pre-emergence, Preemergence)
90%: pest or weed control at 125 g/ha ([6]; Amaranthus retroflexus, post-emergence, 240 h, Postemergence, 125 g ai/ha, read-out: Plant response rating (0 to 100 scale), Pigweed) | pest or weed control at 500 g/ha ([7]; post-emergence, Postemergence) | pest or weed control at 500 g/ha ([13]; 500 g ai/ha, scale 0 to 100)
40: Plant response rating (0 to 100), Oilseed Rape ([11]; Postemergence, 62 g ai/ha)
60%: pest or weed control at 62 g/ha [9, 17]
0: Barnyardgrass plant response rating (0 = no effect, 100 = complete control) ([1]; Preemergence, 125 g ai/ha) | Corn plant response rating (0 = no effect, 100 = complete control) ([2]; Preemergence, 125 g ai/ha) | Foxtail, Giant plant response rating (0 = no effect, 100 = complete control) ([3]; Preemergence, 125 g ai/ha) | Crabgrass, Large plant response rating (0 = no effect, 100 = complete control) ([4]; Preemergence, 125 g ai/ha) | Morningglory plant response rating (0 = no effect, 100 = complete control) ([5]; Preemergence, 125 g ai/ha) | Wheat plant response rating (0 = no effect, 100 = complete control) ([8]; Preemergence, 125 g ai/ha)
100%: pest or weed control at 500 g/ha ([6]; Amaranthus retroflexus, post-emergence, 240 h, Postemergence, read-out: Plant response rating (0 to 100 scale), Pigweed) | pest or weed control at 500 g/ha ([6]; Amaranthus retroflexus, pre-emergence, 240 h, Preemergence, read-out: Plant response rating (0 to 100 scale), Pigweed) | pest or weed control at 62 g/ha ([12]; 62 g ai/ha) | pest or weed control at 250 g/ha ([12]; 250 g ai/ha, scale 0 to 100) | pest or weed control at 500 g/ha ([12]; 500 g ai/ha, scale 0 to 100)
10%: pest or weed control at 500 g/ha [9, 16] | pest or weed control at 250 g/ha [10, 16] | pest or weed control at 500 g/ha [10, 16]
40%: pest or weed control at 250 g/ha [9, 16]
50: Plant response rating, Oilseed Rape ([11]; Postemergence, 250 g ai/ha, scale 0 to 100) | Plant response rating, Oilseed Rape ([11]; Preemergence, 62 g ai/ha)
20: Plant response rating, Oilseed Rape ([11]; Preemergence, 125 g ai/ha)
30: Plant response rating, Oilseed Rape ([11]; Preemergence, 250 g ai/ha)
0%: pest or weed control at 125 g/ha ([1]; Echinochloa crus-galli, post-emergence, 240 h, Postemergence, 125 g ai/ha, read-out: Plant response rating (0 to 100 scale), Barnyardgrass) | pest or weed control at 500 g/ha ([1]; Echinochloa crus-galli, post-emergence, 240 h, Postemergence, read-out: Plant response rating (0 to 100 scale), Barnyardgrass) | pest or weed control at 500 g/ha ([1]; Echinochloa crus-galli, pre-emergence, 240 h, Preemergence, read-out: Plant response rating (0 to 100 scale), Barnyardgrass) | plant injury at 125 g/ha ([2]; Zea mays, post-emergence, 240 h, Postemergence, 125 g ai/ha, read-out: Plant response rating (0 to 100 scale), Corn) | plant injury at 500 g/ha ([2]; Zea mays, post-emergence, 240 h, Postemergence, read-out: Plant response rating (0 to 100 scale), Corn) | plant injury at 500 g/ha ([2]; Zea mays, pre-emergence, 240 h, Preemergence, read-out: Plant response rating (0 to 100 scale), Corn) | pest or weed control at 125 g/ha ([3]; Setaria faberi, post-emergence, 240 h, Postemergence, 125 g ai/ha, read-out: Plant response rating (0 to 100 scale), Foxtail, Giant) | pest or weed control at 500 g/ha ([3]; Setaria faberi, post-emergence, 240 h, Postemergence, read-out: Plant response rating (0 to 100 scale), Foxtail, Giant) | pest or weed control at 500 g/ha ([3]; Setaria faberi, pre-emergence, 240 h, Preemergence, read-out: Plant response rating (0 to 100 scale), Foxtail, Giant) | pest or weed control at 125 g/ha ([4]; Digitaria sanguinalis, post-emergence, 240 h, Postemergence, 125 g ai/ha, read-out: Plant response rating (0 to 100 scale), Crabgrass, Large) | pest or weed control at 500 g/ha ([4]; Digitaria sanguinalis, post-emergence, 240 h, Postemergence, read-out: Plant response rating (0 to 100 scale), Crabgrass, Large) | pest or weed control at 500 g/ha ([4]; Digitaria sanguinalis, pre-emergence, 240 h, Preemergence, read-out: Plant response rating (0 to 100 scale), Crabgrass, Large) | pest or weed control at 125 g/ha ([5]; Ipomoea, post-emergence, 240 h, Postemergence, 125 g ai/ha, read-out: Plant response rating (0 to 100 scale), Morningglory) | pest or weed control at 500 g/ha ([5]; Ipomoea, post-emergence, 240 h, Postemergence, read-out: Plant response rating (0 to 100 scale), Morningglory) | pest or weed control at 500 g/ha ([5]; Ipomoea, pre-emergence, 240 h, Preemergence, read-out: Plant response rating (0 to 100 scale), Morningglory) | plant injury at 125 g/ha ([8]; Triticum aestivum, post-emergence, 240 h, Postemergence, 125 g ai/ha, read-out: Plant response rating (0 to 100 scale), Wheat) | plant injury at 500 g/ha ([8]; Triticum aestivum, post-emergence, 240 h, Postemergence, read-out: Plant response rating (0 to 100 scale), Wheat) | plant injury at 500 g/ha ([8]; Triticum aestivum, pre-emergence, 240 h, Preemergence, read-out: Plant response rating (0 to 100 scale), Wheat) | pest or weed control at 62 g/ha [9, 15] | pest or weed control at 125 g/ha [9, 15] | pest or weed control at 125 g/ha [9, 17] | pest or weed control at 500 g/ha ([9]; pre-emergence, Preemergence) | pest or weed control at 62 g/ha [10, 18] | pest or weed control at 125 g/ha [10, 18] | pest or weed control at 62 g/ha [10, 19] | pest or weed control at 125 g/ha [10, 19] | pest or weed control at 250 g/ha ([10]; pre-emergence, Preemergence) | pest or weed control at 500 g/ha ([10]; pre-emergence, Preemergence) | pest or weed control at 62 g/ha ([14]; 62 g ai/ha) | pest or weed control at 125 g/ha ([14]; 125 g ai/ha) | pest or weed control at 250 g/ha ([14]; 250 g ai/ha, scale 0 to 100)
70%: pest or weed control at 500 g/ha ([7]; pre-emergence, Preemergence)
70: Pigweed plant response rating (0 = no effect, 100 = complete control) ([6]; Preemergence, 125 g ai/ha) | Plant response rating, Oilseed Rape ([11]; Postemergence, 500 g ai/ha, scale 0 to 100)
55: Plant response rating (0 to 100), Oilseed Rape ([11]; Postemergence, 125 g ai/ha)
